Laboratory results reported in US9993494B2, “Compositions and methods for treating fibrotic disease” (eFFECTOR Therapeutics, Inc., priority 2014, dated 2018).

System: normal human lung fibroblasts
Assay: Ribosomal profiling: translational efficiency in TGFβ-treated fibroblasts
Format: cell-based
Settings: TGFβ-treated fibroblasts
Protocol: Ribosomal profiling allows for measurement of changes in transcription and translation on a genome-wide basis accompanying TGFβ-dependent transformation of fibroblasts to myofibroblasts. Ribosomal profiles of the TGFβ-treated fibroblasts from Example 1 (about 6×10^6 cells/10 cm plate) were prepared and analyzed for changes in translational efficiencies with respect to potential disease-associated cellular changes accompanying this TGFβ-induced transformation.
Briefly, cells were washed with cold PBS supplemented with cycloheximide and lysed with 1× mammalian cell lysis buffer for 10 minutes on ice. Lysates were clarified by centrifugation for 10 minutes at 14,000 rpm and supernatants were collected. Cell lysates were processed to generate ribosomal protected fragments and total mRNA according to the instructions included with the ARTseq Ribosome Profiling Kit (Illumina, San Diego, Calif.). Sequencing of total RNA (RNA) and of ribosome-protected fragments of RNA (RPF) was carried out using RNA-Seq methodology according to the manufacturer's instructions (Illumina). To analyze the ribosomal profiles, RNA-Seq reads were processed with tools from the FASTX-Toolkit (fastq_quality_trimmer, fastx_clipper and fastx_trimmer). Unprocessed and processed reads were evaluated for a variety of quality measures using FastQC, and processed reads were mapped to the human genome using TopHat (see, e.g., Trapnell et al., Bioinformatics 25:1105, 2009). Gene-by-gene assessment of the number of fragments strictly and uniquely mapping to the coding region of each gene was conducted using HTSeq-count, a component of the HTSeq package. […] Genes with low counts in either RPF or RNA were excluded from differential analyses. Pathway and network analyses of differential data were conducted using Ingenuity Pathway Analysis (IPA).

## CC(C=CC(=O)NO)=CC(C)C(=O)c1ccc(N(C)C)cc1 (stereo not drawn) [TSA, 7-[4-(dimethylamino)phenyl]-N-hydroxy-4,6-dimethyl-7-oxohepta-2,4-dienamide]
ENSG00000125967
  renormalizing the translational profile of NECAB3: − (− = <0.9)
ENSG00000127184
  renormalizing the translational profile of COX7C: − (− = <0.9)
ENSG00000128342
  renormalizing the translational profile of LIF: − (− = <0.9)
ENSG00000129422
  renormalizing the translational profile of MTUS1: − (− = <0.9)
ENSG00000129675
  renormalizing the translational profile of ARHGEF6: − (− = <0.9)
ENSG00000130255
  renormalizing the translational profile of RPL36: − (− = <0.9)
ENSG00000130513
  renormalizing the translational profile of GDF15: − (− = <0.9)
ENSG00000130707
  renormalizing the translational profile of ASS1: − (− = <0.9)
ENSG00000130741
  renormalizing the translational profile of EIF2S3: − (− = <0.9)
ENSG00000131469
  renormalizing the translational profile of RPL27: − (− = <0.9)
ENSG00000132031
  renormalizing the translational profile of MATN3: − (− = <0.9)
ENSG00000132170
  renormalizing the translational profile of PPARG: + (+ = 0.9 to 1.5)
ENSG00000132510
  renormalizing the translational profile of KDM6B: − (− = <0.9)
ENSG00000133321
  renormalizing the translational profile of RARRES3: − (− = <0.9)
ENSG00000134897
  renormalizing the translational profile of BIVM: − (− = <0.9)
ENSG00000135390
  renormalizing the translational profile of ATP5G2: − (− = <0.9)
ENSG00000135480
  renormalizing the translational profile of KRT7: − (− = <0.9)
ENSG00000135486
  renormalizing the translational profile of HNRNPA1: − (− = <0.9)
ENSG00000136244
  renormalizing the translational profile of IL6: − (− = <0.9)
ENSG00000136942
  renormalizing the translational profile of RPL35: − (− = <0.9)
ENSG00000136999
  renormalizing the translational profile of NOV: + (+ = 0.9 to 1.5)
ENSG00000137331
  renormalizing the translational profile of IER3: − (− = <0.9)
ENSG00000137628
  renormalizing the translational profile of DDX60: − (− = <0.9)
ENSG00000137818
  renormalizing the translational profile of RPLP1: − (− = <0.9)
ENSG00000137819
  renormalizing the translational profile of PAQR5: − (− = <0.9)
ENSG00000138356
  renormalizing the translational profile of AOX1: ++ (++ = 1.5 to 2.0)
ENSG00000138675
  renormalizing the translational profile of FGF5: − (− = <0.9)
ENSG00000138735
  renormalizing the translational profile of PDE5A: − (− = <0.9)
ENSG00000139354
  renormalizing the translational profile of GAS2L3: + (+ = 0.9 to 1.5)
ENSG00000139734
  renormalizing the translational profile of DIAPH3: − (− = <0.9)
ENSG00000141140
  renormalizing the translational profile of MYO19: − (− = <0.9)
ENSG00000142541
  renormalizing the translational profile of RPL13A: − (− = <0.9)
ENSG00000142676
  renormalizing the translational profile of RPL11: − (− = <0.9)
ENSG00000143632
  renormalizing the translational profile of ACTA1: − (− = <0.9)
ENSG00000143850
  renormalizing the translational profile of PLEKHA6: + (+ = 0.9 to 1.5)
ENSG00000144713
  renormalizing the translational profile of RPL32: − (− = <0.9)
ENSG00000145592
  renormalizing the translational profile of RPL37: − (− = <0.9)
ENSG00000145741
  renormalizing the translational profile of BTF3: − (− = <0.9)
ENSG00000146066
  renormalizing the translational profile of HIGD2A: − (− = <0.9)
ENSG00000146592
  renormalizing the translational profile of CREB5: − (− = <0.9)
ENSG00000146966
  renormalizing the translational profile of DENND2A: − (− = <0.9)
ENSG00000147403
  renormalizing the translational profile of RPL10: + (+ = 0.9 to 1.5)
ENSG00000147677
  renormalizing the translational profile of EIF3H: − (− = <0.9)
ENSG00000148303
  renormalizing the translational profile of RPL7A: − (− = <0.9)
ENSG00000149100
  renormalizing the translational profile of EIF3M: − (− = <0.9)
ENSG00000149806
  renormalizing the translational profile of FAU: − (− = <0.9)
ENSG00000150636
  renormalizing the translational profile of CCDC102B: + (+ = 0.9 to 1.5)
ENSG00000151474
  renormalizing the translational profile of FRMD4A: + (+ = 0.9 to 1.5)
ENSG00000152413
  renormalizing the translational profile of HOMER1: − (− = <0.9)
ENSG00000152527
  renormalizing the translational profile of PLEKHH2: − (− = <0.9)
ENSG00000154122
  renormalizing the translational profile of ANKH: − (− = <0.9)
ENSG00000154262
  renormalizing the translational profile of ABCA6: − (− = <0.9)
ENSG00000154358
  renormalizing the translational profile of OBSCN: +++ (+++ = >2.0)
ENSG00000154736
  renormalizing the translational profile of ADAMTS5: − (− = <0.9)
ENSG00000155463
  renormalizing the translational profile of OXA1L: − (− = <0.9)
ENSG00000155621
  renormalizing the translational profile of C9orf85: − (− = <0.9)
ENSG00000156482
  renormalizing the translational profile of RPL30: − (− = <0.9)
ENSG00000156508
  renormalizing the translational profile of EEF1A1: + (+ = 0.9 to 1.5)
ENSG00000157168
  renormalizing the translational profile of NRG1: − (− = <0.9)
ENSG00000158859
  renormalizing the translational profile of ADAMTS4: − (− = <0.9)
ENSG00000161016
  renormalizing the translational profile of RPL8: − (− = <0.9)
ENSG00000161970
  renormalizing the translational profile of RPL26: − (− = <0.9)
ENSG00000162244
  renormalizing the translational profile of RPL29: − (− = <0.9)
ENSG00000162545
  renormalizing the translational profile of CAMK2N1: − (− = <0.9)
ENSG00000163453
  renormalizing the translational profile of IGFBP7: − (− = <0.9)
ENSG00000163584
  renormalizing the translational profile of RPL22L1: − (− = <0.9)
